From BindingDB's records for PubMed 32883635 (National Institute of Pharmaceutical Education and Research …, 2020)

Target: T1, Enoyl-[acyl-carrier-protein] reductase [NADPH] FabI (Staphylococcus aureus (strain MRSA252), UniProt Q6GI75)
T1 sequence (Q6GI75 whole entry): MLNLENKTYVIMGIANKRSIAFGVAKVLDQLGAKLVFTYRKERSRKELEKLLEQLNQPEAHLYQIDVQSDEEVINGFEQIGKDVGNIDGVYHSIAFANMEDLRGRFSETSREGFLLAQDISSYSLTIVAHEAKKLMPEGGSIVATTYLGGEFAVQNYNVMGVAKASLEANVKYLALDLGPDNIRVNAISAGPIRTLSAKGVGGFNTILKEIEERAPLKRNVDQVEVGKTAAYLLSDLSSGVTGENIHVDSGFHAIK
Experiment: Inhibition of Staphylococcus aureus FabI assessed as inhibition of bacterial growth by measuring the NADH consumption rate at 20 mins

Point of comparison: `COc1cc(/C=N/c2ccc(S(N)(=O)=O)cc2)ccc1C(C)=O`, IC50 0.33 nM. Against it:
- NS(=O)(=O)C1C=CC(NC(=O)CCCN2CCOCC2)C=C1 (stereo unspecified) — within 1.5-fold, 0.31 nM
- NS(=O)(=O)c1ccc(/N=C/C2=C(Cl)CCC=C2)cc1 — within 1.5-fold, 0.35 nM

Target: not listed separately
Experiment: Inhibition of wild type Escherichia coli FabI assessed as inhibition of bacterial growth

Point of comparison: `Oc1ccccc1Oc1ccccc1` [2-phenoxylphenol], Ki 0.5 nM. Against it:
- Cc1ccc(Oc2ccccc2)c(O)c1 [PT53] — 14-fold higher, 7 nM
- Oc1cc(F)ccc1Oc1ccccc1 [PT55] — within 1.5-fold, 0.7 nM
